Laboratory results published in US5200397A, “Use of peptide analogs of thrombospondin for the inhibition of angiogenic activity” (W. R. Grace & Co.-Conn., priority 1991, dated 1993).
Residues, ends and D or L forms follow the SMILES beside them. No end group written: not given here.

Key:
[1] = tested on: chicken chorioallantoic membrane (CAM); test: CAM assay (antiangiogenesis, Avascular Index); format: in vivo; conditions: any dosage
Experimental: Assays for antiangiogenic properties on the chicken chorioallantoic membrane (CAM) were performed using the "egg culture" technique (Auerbach, Dev. Biol. (1974) 41:391 and Crum, Science (1985) 230:1375). The fertilized White Leghorn egg (Truslow Farms, Chestertown, Md.) used in this method was removed from the shell on day 3 (after fertilization) and placed in a culture dish. The "cultured egg" was maintained through day 6 at 37° C. in an atmosphere of 2% CO2 and a relative humidity of 70%. After day 6 incubation was carried out without supplemental CO2.
Test materials were implanted on the CAM using low gelling temperature agarose pellets (Castellot, J. Cell Physiol. (1986) 127:323). This assay was performed twice. In the first assay, the test materials included pellets containing 90, 9, and 0.9 μg of peptide p1 (SEQ ID No. 1) diluted in water. […]
Antiangiogenesis was examined in an assay for inhibition of embryonic angiogenesis as described by Fenselau in "Growth and Maturation Factors" (1984) 2:175. After 1 or 2 days the samples were evaluated for their antiangiogenic effects on the CAM. […]
Inhibition of embryonic angiogenesis was also quantitated by measuring the size of the affected zone surrounding the pellet as well as the portion of the pellet that borders the affected region. […]

[2] = tested on: Mouse B16 F10 melanoma cells; test: Direct adhesion assay (melanoma cells to adsorbed ligand); format: cell-based; conditions: for Adhesion as % Thrombospondin: absorbed compound 2 μg, B16 F10 melanoma cells
Experimental: It is believed that thrombospondin acts in metastasis through its adhesive properties. […] In this assay, wells of a 96-well microtiter dish (Costar, 10 Cambridge, Massachusetts) were incubated for two to three hours with 50 μl of a 40 μg/ml solution of various ligands in 20 mM NaCl, pH 7.3. Thrombospondin (purified by the method of Tuszynski et al., J. Biol. Chem. (1985) 260:12240-5), fibronectin (Sigma Chemical Co., Missouri) served as the positive control. Bovine serum albumin (BSA) (Sigma Chemical Co.) served as the negative control. […] Following peptide adhesion to the microtiter dish, the wells were aspirated, treated with 200 μl phosphate buffered saline (PBS) containing 1% BSA for 1 hour and then washed three more times with 200 μl PBS.
Mouse B16 F10 melanoma cells were grown and harvested during log phase of growth using standard procedures. The harvested cells were washed two times in serum-free Dulbecco's minimum essential medium (DMEM) (Flow Laboratories) and suspended in DMEM at a final concentration of 4×10^5 cells/ml. Of the cell suspension 100 μl was added to each well of the microtiter dish containing the various ligands and the dish incubated at 37° C. in a CO2 incubator for 1 hour. Nonadherent cells were removed by aspiration and the wells washed three times with 200 μl of PBS. The total cell-associated protein was determined by dissolving the attached cells directly in the microtiter wells with 200 μl of the Pierce BCA working solution (Pierce Chem. Co. Booklet No. 23225 (1987)). The plate was covered with an adhesive mylar sheet (Flow Labs) and incubated at 60° C. for 30 minutes. Plates were allowed to cool to room temperature, cover sheets were removed, and the absorbance of each well was determined at 562 nm with a microtiter plate reader (Biotek, Burlington, Vt.)

[3] = tested on: platelets; test: Direct platelet adhesion assay; format: cell-based; conditions: for Adherence as % Control: wells treated with 50 μl of 40 μg/ml solution, platelets
Experimental: The number of adherent platelets was essentially determined as previously described (Tuszynski et al., Anal. Bio. supra). Briefly, 100 μl of 5×10^8 platelets/ml washed as previously described (Tuszynski, et al., Blood 72, 109-225, 1988) were added to microtiter plates, the wells of which were treated with 50 μl of a 40 μg/m] peptide or protein solution (Hepes buffered saline, pH 7.4). Solutions were dried at room temperature after incubation in a fume hood for two hours. Wells were blocked for one hour with 1% BSA. Platelets (100 μl) were incubated in the wells for 30 minutes and non-adherent platelets were removed by aspiration. Wells were washed 3X with 200 μl of Hepes buffered saline, pH 7.4. The number of adherent platelets was determined by measuring the platelet-derived protein using the BCA protein assay.

[4] = tested on: Platelet-rich-plasma (PRP); test: Platelet aggregation assay (ADP, platelet-rich plasma); format: cell-based; conditions: 1 μM ADP
Experimental: Platelet aggregation was monitored on a single-channel aggregometer equipped to measure luminescence (Chromo-Log, Havertown, Pa.). Platelet-rich-plasma (PRP) was obtained from whole blood anti-coagulated with 0.38% Sodium Citrate by centrifugation at 150 X g for 20 minutes. Peptides were added to 0.5 ml of PRP and aggregation initiated with 1 μM ADP. Buffer blanks contained diluent (water) but no peptide.

[5] = tested on: B16 F10 mouse melanoma cells; test: Antimetastatic activity in vivo (lung tumors); parameters: species or system C57 black mice; conditions: for % buffer control (number of lung tumors): intravenous with cells, 16 days
Text: After 16 days, the mice were sacrificed and the number of lung tumors counted.

[6] = tested on: fibronectin (FN); test: Competitive platelet adhesion assay, absorbed fibronectin; format: cell-based; conditions: 250 μg/ml; absorbed protein FN; platelets
Experimental: The direct adhesion assay of Example 7 was modified to measure the ability of the peptide compounds of the invention to compete with intact thrombospindin or fibronectin for adhesion of platelets.
In this assay, thrombospondin (TSP) or fibronectin (FN) was absorbed onto microtiter dish as described in Example 7. The assay was similar to Example 7 except that before platelets were added to the microtiter dishes they were preincubated with 250 μg/ml of various ligands.

[7] = tested on: intact thrombospondin; test: Competitive assay, thrombospondin specific adhesion to melanoma cells; format: cell-based; conditions: for % of buffer control: melanoma cell adhesion to absorbed thrombospondin
Experimental: The direct adhesion assay of Example 5 was modified to measure the ability of the peptide compounds of the invention to compete with intact thrombospondin for adhesion to melanoma cells.
In this assay, intact thrombospondin is absorbed onto microtiter dishes as described in Example 5. The assay is similar to Example 5 except that before the melanoma cells are added to the microtiter dishes they are preincubated for 15 minutes with 100 μg/ml of various ligands.

[8] = tested on: collagenase; test: Collagenase inhibition assay (Johnson-Wint radiometric); format: biochemical; conditions: 2 μg dose
Experimental: Collagenase inhibitory activity was determined as described by Johnson-Wint (Anal. Biochem. (1980) 104:175). Peptides p1 (SEQ ID No. 1) and p27 (SEQ ID NO. 19) were tested in the Johnson-Witt radiometric enzyme assay for collagenase activity at doses of 50 ng, 100 ng, 250 ng, 500 ng, 1 μg and 2μg. Peptide p27 was inhibitory (-21%) at the 2μg dose.

CC(C)[C@H](NC(=O)[C@H](CO)NC(=O)[C@H](CS)NC(=O)[C@@H]1CCCN1C(=O)[C@H](CO)NC(=O)[C@@H](N)Cc1c[nH]c2ccccc12)C(=O)N[C@H](C(=O)N[C@@H](CS)C(=O)NCC(=O)O)[C@@H](C)O [p1] (H-WSPCSVTCG-OH)
toxicity to embryo (abnormal development, embryo death) [1]: not toxic

Bovine serum albumin [BSA, reference compound]
Adhesion as % Thrombospondin [2]: 13%
Adherence as % Control [3]: 0.7%

Thrombospondin [reference compound]
Adhesion as % Thrombospondin [2]: 100%
Adherence as % Control [3]: 100%

WSPCSVTCG-NH2 (cysteine pairing not given here) [p6]
Adhesion as % Thrombospondin [2]: 70%
adhesive properties (in words) ([2]; melanoma cell adhesion, Table 1): display adhesive properties
inhibition of platelet aggregation (in words, FIG. 1) [4]: inhibit platelet aggregation
% buffer control (number of lung tumors) ([5]; 30 μg/mouse): 91%
% buffer control (number of lung tumors) ([5]; 100 μg/mouse): 102%
% buffer control (number of lung tumors) ([5]; 300 μg/mouse): 50%
number of lung tumors versus controls (in words) ([5]; mouse, in vivo): statistically fewer tumors than controls
size of lung tumors (in words) ([5]; mouse, in vivo): smaller in size
adherence to platelets (in words) [3]: adhere to platelets
Adherence as % Control [3]: 38%
% Buffer Control [6]: 96%
competition with thrombospondin for adhesion of melanoma cells (in words) [7]: compete to a lesser degree
% of buffer control ([7]; 100 μg/ml): 89%
% of buffer control ([7]; 200 μg/ml): 74%
% of buffer control ([7]; 300 μg/ml): 74%

fibronectin
Adherence as % Control [3]: 83%

p27: Peptide p27 (SEQ ID NO. 19) tested in the collagenase assay; sequence not printed (WTSCSTSCG)
collagenase activity, inhibition [8]: -21%
